Laboratory results published in ChEMBL document CHEMBL1201862, “PubChem BioAssay data set” (2004).
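How tested: cells in 96-well plates exposed to compound for 48 hours at five concentrations. Abbreviation: GI50, concentration required for 50% inhibition of growth.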 Calls of active or inactive are those of the source. No stated cut-off is given here; in the data, active = GI50 up to about 1.1 µM and inactive = higher.

Tests used:
Test in all cases: NCI-60 cell line screen, 48 h
[1] = test system: 786-0
[2] = test system: COLO 205
[3] = test system: HCT-15
[4] = test system: HOP-92
[5] = test system: M14
[6] = test system: MDA-MB-435
[7] = test system: MDA-N
[8] = test system: MOLT-4
[9] = test system: NCI-H522
[10] = test system: OVCAR-5
[11] = test system: PC-3
[12] = test system: RXF 393
[13] = test system: SF-268
[14] = test system: SF-539
[15] = test system: SK-MEL-28
[16] = test system: SNB-75
[17] = test system: SR
[18] = test system: SW-620
[19] = test system: UACC-257
[20] = test system: EKVX

SMILES	GI50 [1]	GI50 [2]	GI50 [3]	GI50 [4]	GI50 [5]	GI50 [6]	GI50 [7]	GI50 [8]	GI50 [9]	GI50 [10]	GI50 [11]	GI50 [12]	GI50 [13]	GI50 [14]	GI50 [15]	GI50 [16]	GI50 [17]	GI50 [18]	GI50 [19]	GI50 [20]
CC(=O)Nc1ccc(COC(O)CN2CCCCC2)cc1[N+](=O)[O-] (configuration not stated)	> 100 µM (inactive)	> 100 µM (inactive)	> 100 µM	> 100 µM (inactive)	> 100 µM (inactive)	> 100 µM (inactive)	> 100 µM (inactive)	> 100 µM (inactive)	> 100 µM (inactive)	> 100 µM (inactive)	> 100 µM (inactive)	> 100 µM (inactive)	> 100 µM (inactive)	> 100 µM (inactive)	> 100 µM (inactive)	> 100 µM (inactive)	> 100 µM (inactive)	> 100 µM (inactive)	> 100 µM (inactive)	
CC1=C[C@@H](C)C[C@]2(C)CC[C@H](O2)[C@]23CC[C@](C)(C[C@H](O2)[C@@H]2O[C@@](C)(CC2=O)[C@@H](O)[C@H]2CC[C@@]4(CCC[C@@H](O4)[C@H](C)C(=O)O[C@H]4C[C@H]([C@]5(O)OCC[C@H](C)[C@@H]5O)O[C@H]4C=C1)O2)O3	0.0027 µM (active)	0.00127 µM (active)	0.00796 µM	0.00159 µM (active)	0.00527 µM (active)	0.0371 µM (active)	0.0233 µM (active)		0.0134 µM (active)	0.0186 µM (active)	0.00229 µM (active)	0.00146 µM (active)	0.002 µM (active)	0.00185 µM (active)	0.00173 µM (active)	< 0.001 µM (active)	0.00157 µM (active)	0.0684 µM (active)	0.0148 µM (active)	0.0113 µM (active)
O=C(CSc1nnc(-c2ccccn2)s1)N/N=C/c1ccc([N+](=O)[O-])cc1	41.9 µM (inactive)	> 100 µM (inactive)	45.6 µM	16.3 µM (inactive)	> 100 µM (inactive)	> 100 µM (inactive)	> 100 µM (inactive)	> 100 µM (inactive)	> 100 µM (inactive)	> 100 µM (inactive)	65.8 µM (inactive)	12.1 µM (inactive)	22.1 µM (inactive)	59.2 µM (inactive)	> 100 µM (inactive)	2.86 µM (inactive)	> 100 µM (inactive)	> 100 µM (inactive)	> 100 µM (inactive)	
C=C1c2nc3ccccc3n2C=C(c2ccc(Cl)cc2)N1c1ccccc1	13.3 µM (inactive)	29.6 µM (inactive)	12.1 µM	20.7 µM (inactive)	16.3 µM (inactive)	21 µM (inactive)	33.1 µM (inactive)	> 100 µM (inactive)	4 µM (inactive)	26.5 µM (inactive)	26.4 µM (inactive)	16.1 µM (inactive)		13.2 µM (inactive)	11.7 µM (inactive)	3.5 µM (inactive)	5.94 µM (inactive)	25.3 µM (inactive)	18.7 µM (inactive)	14.8 µM (inactive)
COc1cc(-c2oc3c(OC)c(O)cc(O)c3c(=O)c2OC)ccc1O	16.9 µM (inactive)	29.1 µM (inactive)	3.67 µM	3.83 µM (inactive)	4.12 µM (inactive)	7.35 µM (inactive)	10.6 µM (inactive)	4.92 µM (inactive)	8.17 µM (inactive)	22.3 µM (inactive)	6.44 µM (inactive)	3.73 µM (inactive)	3.08 µM (inactive)	5.47 µM (inactive)	12.9 µM (inactive)	4.02 µM (inactive)	3.24 µM (inactive)	13.8 µM (inactive)	26 µM (inactive)	21.8 µM (inactive)
Cc1c(-c2ccccc2)c(C#N)c2nnn(-c3ccc(Cl)cc3)c(=O)n12	18.3 µM (inactive)	11 µM (inactive)	10.1 µM	> 100 µM (inactive)	5.08 µM (inactive)	31 µM (inactive)	24.2 µM (inactive)		10.9 µM (inactive)	> 100 µM (inactive)	22.2 µM (inactive)	28.2 µM (inactive)	32.6 µM (inactive)	20.7 µM (inactive)	> 100 µM (inactive)	30.9 µM (inactive)	8.53 µM (inactive)	25.2 µM (inactive)	35.8 µM (inactive)	50.9 µM (inactive)
CN(C)CCNC(=O)c1cccc2nc3c(ccc4ccccc43)nc12	2.91 µM (inactive)	1.6 µM (inactive)	1.61 µM	3.61 µM (inactive)	2.49 µM (inactive)	3.33 µM (inactive)	1.72 µM (inactive)	0.327 µM (active)	4.22 µM (inactive)	4.55 µM (inactive)	2.79 µM (inactive)	3.2 µM (inactive)	0.675 µM (active)	1.8 µM (inactive)	2.05 µM (inactive)	3.9 µM (inactive)	0.362 µM (active)	1.1 µM (active)	1.74 µM (inactive)	5.74 µM (inactive)
CC(C)(C)[Si](C)(C)OCC1CCC(n2cnc3c(NC(=O)c4ccccc4)ncnc32)O1 (configuration not stated)	17.5 µM (inactive)	18.5 µM (inactive)	18.6 µM	16.6 µM (inactive)	16.7 µM (inactive)	15.8 µM (inactive)	17.2 µM (inactive)	18.2 µM (inactive)	16.4 µM (inactive)	16.7 µM (inactive)	20.6 µM (inactive)	22 µM (inactive)	17.7 µM (inactive)	18.3 µM (inactive)	14.3 µM (inactive)	10.4 µM (inactive)	29.9 µM (inactive)	20 µM (inactive)	18.7 µM (inactive)	17.6 µM (inactive)
Cc1c(-c2ccccc2)c(-c2ccc(OCCN(C)C)cc2)n2ccccc12	7.11 µM (inactive)	1.64 µM (inactive)	2.55 µM	8.59 µM (inactive)	1.79 µM (inactive)	3.79 µM (inactive)	4.37 µM (inactive)	3.48 µM (inactive)	9.06 µM (inactive)	15 µM (inactive)	6.34 µM (inactive)	7.69 µM (inactive)	14.3 µM (inactive)	10.5 µM (inactive)	1.79 µM (inactive)	8.38 µM (inactive)	2.43 µM (inactive)	5.5 µM (inactive)	2.04 µM (inactive)	15.3 µM (inactive)
CC(C)(C)OC(=O)NC(CSCc1ccc(C(=O)c2ccccc2)cc1)C(=O)O (configuration not stated)	> 100 µM (inactive)	> 100 µM (inactive)	> 100 µM	> 100 µM (inactive)		> 100 µM (inactive)	> 100 µM (inactive)	> 100 µM (inactive)	> 100 µM (inactive)	> 100 µM (inactive)	> 100 µM (inactive)	> 100 µM (inactive)	> 100 µM (inactive)	> 100 µM (inactive)	> 100 µM (inactive)	> 100 µM (inactive)	87.9 µM (inactive)	> 100 µM (inactive)	> 100 µM (inactive)	> 100 µM (inactive)
CN(C)C1(C(=O)O)CC1	> 100 µM (inactive)		> 100 µM	> 100 µM (inactive)	> 100 µM (inactive)	> 100 µM (inactive)	> 100 µM (inactive)	> 100 µM (inactive)	> 100 µM (inactive)	> 100 µM (inactive)	> 100 µM (inactive)	> 100 µM (inactive)	> 100 µM (inactive)	> 100 µM (inactive)	> 100 µM (inactive)	> 100 µM (inactive)	> 100 µM (inactive)	> 100 µM (inactive)	> 100 µM (inactive)	> 100 µM (inactive)
CCOC(=O)c1cnccc1CC1(C#N)c2ccccc2C=CN1C(=O)c1ccccc1 (configuration not stated)	29.7 µM (inactive)	28.2 µM (inactive)	31 µM	37.5 µM (inactive)	24.3 µM (inactive)	35.6 µM (inactive)	18.1 µM (inactive)	15.5 µM (inactive)	18.6 µM (inactive)	80.2 µM (inactive)	20.4 µM (inactive)	64.9 µM (inactive)	23.6 µM (inactive)	30.1 µM (inactive)	58.2 µM (inactive)	12.9 µM (inactive)	26.8 µM (inactive)	47.3 µM (inactive)	34.7 µM (inactive)	36.5 µM (inactive)
BrC1(c2ccccc2)C[n+]2c(-c3ccccc3)cc(-c3ccccc3)cc2-c2ccccc21 (configuration not stated)	0.661 µM (active)	0.157 µM (active)	2.9 µM	0.664 µM (active)	0.499 µM (active)	0.205 µM (active)	0.327 µM (active)	0.631 µM (active)	0.384 µM (active)	1.27 µM (inactive)	0.346 µM (active)	0.183 µM (active)	0.409 µM (active)	0.764 µM (active)	0.92 µM (active)	0.236 µM (active)	0.611 µM (active)	0.426 µM (active)	0.233 µM (active)	0.457 µM (active)
O=C1CC(=O)NC(NN2C(=O)/C(=C/c3ccc(Cl)cc3)N=C2c2ccccc2)=N1	17 µM (inactive)	16.8 µM (inactive)	15 µM	12.4 µM (inactive)	14.5 µM (inactive)	15.2 µM (inactive)	15.8 µM (inactive)	4.73 µM (inactive)	10.1 µM (inactive)	15.1 µM (inactive)	14 µM (inactive)	14.1 µM (inactive)	14.1 µM (inactive)	16.8 µM (inactive)	19.1 µM (inactive)	29.1 µM (inactive)	4.71 µM (inactive)	17.4 µM (inactive)	17.8 µM (inactive)	
